In brackets after ≈: the same amount, converted by molar mass. Activity calls are given as the source filed them. The calls are words filed in the database; no cut-off is given here.
Legend:
[1] = Antiproliferative activity against human KATO III stomach cancer cell line cells assessed as reduction in cell viability incubated for 72 hrs measured after 4 hrs of MTT addition by MTT assay; type: functional
[2] = Volume of distribution at steady state in ICR mouse at 4 mg/kg, iv measured upto 24 hrs by LC-MS/MS analysis; type: ADME, organism-based; details: in vivo, read-out: Vdss
[3] = AUC (0 to t) in ICR mouse at 4 mg/kg, iv measured upto 24 hrs by LC-MS/MS analysis; type: ADME, organism-based; set-up: route intravenous, dose 4 mg/kg, time <=24; details: in vivo
[4] = Apparent permeability across basolateral to apical side in human Caco-2 cells; type: ADME, cell-based
[5] = Cmax in ICR mouse at 40 mg/kg, po measured upto 24 hrs by LC-MS/MS analysis; type: ADME, organism-based; set-up: route oral, dose 40 mg/kg, time <=24; details: in vivo
NCI-H358 = assay: Antiproliferative activity against human NCI-H358 cells assessed as reduction in cell viability incubated for 72 hrs measured after 4 hrs of MTT addition by MTT assay; type: functional, cell-based
HGC-27 [6] = assay: Induction of apoptosis in human HGC-27 cells assessed as early apoptotic cells at 500 nM incubated for 24 hrs by annexin V-FITC and propidium iodide based staining based flow cytometry analysis (reference value: 6.22 %); type: functional
HGC-27 [7] = assay: Antiproliferative activity against human HGC-27 cells assessed as reduction in cell viability incubated for 72 hrs measured after 4 hrs of MTT addition by MTT assay; type: functional, cell-based
[8] = Clearance in ICR mouse at 4 mg/kg, iv measured upto 24 hrs by LC-MS/MS analysis; type: ADME, organism-based; details: in vivo
[9] = Half life in ICR mouse at 4 mg/kg, iv measured upto 24 hrs by LC-MS/MS analysis; type: ADME, organism-based; details: in vivo
A549 = assay: Antiproliferative activity against human A549 cells assessed as reduction in cell viability incubated for 72 hrs measured after 4 hrs of MTT addition by MTT assay; type: functional, cell-based
HGC-27 [10] = assay: Induction of cell cycle arrest in human HGC-27 cells assessed as G0/G1 phase incubated for 24 hrs by propidium iodide staining based flow cytometry analysis; type: functional; details: dose 20-500 nM
HGC-27 [11] = assay: Inhibition of PI3K signalling in human HGC-27 cells assessed as reduction in 4E-BP1 phosphorylation incubated for 3 hrs by Western blot analysis; type: cell-based; details: dose 20-1000 nM
Mus musculus [12] = assay: In vivo inhibition of PI3Kalpha in BALB/c mouse assessed as increase in plasma glucose level at 40 mg/kg, po measured after 30 mins; type: functional, organism-based
HGC-27 [13] = assay: Inhibition of PI3K signalling in human HGC-27 cells assessed as reduction in S6RP S235/236 phosphorylation incubated for 3 hrs by Western blot analysis; type: cell-based; details: dose 20-1000 nM
SNU-638 = assay: Antiproliferative activity against human SNU-638 cells assessed as reduction in cell viability incubated for 72 hrs measured after 4 hrs of MTT addition by MTT assay; type: functional, cell-based
HGC-27 [14] = assay: Antitumor activity against human HGC-27 cells xenografted in BALB/c mouse assessed as tumor growth inhibition at 40 mg/kg, po administered for 25 days and measured on day 25 relative to control; type: functional; details: HGC-27, po, 600 h, time 25 day, read-out: TGI
[15] = AUC (0 to t) in ICR mouse at 40 mg/kg, po measured upto 24 hrs by LC-MS/MS analysis; type: ADME, organism-based; set-up: route oral, dose 40 mg/kg, time <=24; details: in vivo
MKN-45 = assay: Antiproliferative activity against human MKN-45 cells assessed as reduction in cell viability incubated for 72 hrs measured after 4 hrs of MTT addition by MTT assay; type: functional, cell-based
NCI-H460 = assay: Antiproliferative activity against human NCI-H460 cells assessed as reduction in cell viability incubated for 72 hrs measured after 4 hrs of MTT addition by MTT assay; type: functional, cell-based
[16] = AUC (0 to infinity) in ICR mouse at 4 mg/kg, iv measured upto 24 hrs by LC-MS/MS analysis; type: ADME, organism-based; set-up: route intravenous, dose 4 mg/kg, time <=24; details: in vivo
[17] = Half life in ICR mouse at 40 mg/kg, po measured upto 24 hrs by LC-MS/MS analysis; type: ADME, organism-based; details: in vivo
NCI-H23 = assay: Antiproliferative activity against human NCI-H23 cells assessed as reduction in cell viability incubated for 72 hrs measured after 4 hrs of MTT addition by MTT assay; type: functional, cell-based
[18] = target: Phosphatidylinositol 4,5-bisphosphate 3-kinase catalytic subunit beta isoform (Homo sapiens, UniProt P42338); assay: Inhibition of recombinant human PI3Kbeta using PIP2 as substrate by ADP-Glo reagent based assay
Sequence of Phosphatidylinositol 4,5-bisphosphate 3-kinase catalytic subunit beta isoform (P42338 whole entry, canonical isoform): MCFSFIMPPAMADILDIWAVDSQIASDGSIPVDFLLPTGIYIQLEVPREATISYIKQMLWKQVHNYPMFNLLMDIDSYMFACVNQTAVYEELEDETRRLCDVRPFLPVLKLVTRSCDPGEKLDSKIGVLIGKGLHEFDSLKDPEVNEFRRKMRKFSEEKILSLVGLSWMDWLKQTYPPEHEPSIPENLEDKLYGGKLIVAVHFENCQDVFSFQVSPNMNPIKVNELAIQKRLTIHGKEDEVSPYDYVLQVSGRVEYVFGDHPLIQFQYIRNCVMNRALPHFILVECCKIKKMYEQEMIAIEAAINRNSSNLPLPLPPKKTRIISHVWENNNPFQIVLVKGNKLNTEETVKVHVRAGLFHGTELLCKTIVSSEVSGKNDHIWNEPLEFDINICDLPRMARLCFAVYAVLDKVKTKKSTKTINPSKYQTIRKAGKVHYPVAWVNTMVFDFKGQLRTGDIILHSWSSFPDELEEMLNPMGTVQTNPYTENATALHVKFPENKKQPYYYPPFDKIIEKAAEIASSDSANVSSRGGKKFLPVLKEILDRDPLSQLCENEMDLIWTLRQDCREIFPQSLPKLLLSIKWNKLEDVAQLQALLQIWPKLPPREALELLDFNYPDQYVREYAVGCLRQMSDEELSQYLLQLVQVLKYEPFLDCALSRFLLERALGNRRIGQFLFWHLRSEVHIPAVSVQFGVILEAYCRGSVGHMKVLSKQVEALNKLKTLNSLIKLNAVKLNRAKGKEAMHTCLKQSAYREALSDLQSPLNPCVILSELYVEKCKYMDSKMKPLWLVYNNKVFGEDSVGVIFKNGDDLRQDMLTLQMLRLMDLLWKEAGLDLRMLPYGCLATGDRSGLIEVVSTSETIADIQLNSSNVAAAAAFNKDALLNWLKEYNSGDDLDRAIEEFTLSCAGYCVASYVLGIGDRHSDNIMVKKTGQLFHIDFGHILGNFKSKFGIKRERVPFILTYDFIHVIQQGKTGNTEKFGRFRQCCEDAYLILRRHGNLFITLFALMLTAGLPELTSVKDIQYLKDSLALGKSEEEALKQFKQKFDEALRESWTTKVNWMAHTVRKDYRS

[19] = Apparent permeability across apical to basolateral side in human Caco-2 cells; type: ADME, cell-based
HGC-27 [20] = assay: Induction of apoptosis in human HGC-27 cells assessed as necrotic cells at 500 nM incubated for 24 hrs by annexin V-FITC and propidium iodide based staining based flow cytometry analysis (reference value: 1.95 %); type: functional
[21] = Kinetic solubility of compound in PBS buffer at pH 7.4; type: physicochemical; details: read-out: Kinetic_solubility
HGC-27 [22] = assay: Induction of apoptosis in human HGC-27 cells assessed as viable cells at 500 nM incubated for 24 hrs by annexin V-FITC and propidium iodide based staining based flow cytometry analysis (reference value: 83.7 %); type: functional; details: read-out: Activity
Mus musculus [23] = assay: In vivo inhibition of PI3Kalpha in BALB/c mouse assessed as increase in plasma glucose level at 40 mg/kg, po measured after 24 hrs; type: functional, organism-based
MGC-803 = assay: Antiproliferative activity against human MGC-803 cells assessed as reduction in cell viability incubated for 72 hrs measured after 4 hrs of MTT addition by MTT assay; type: functional, cell-based
MG-63 = assay: Antiproliferative activity against human MG-63 cells assessed as reduction in cell viability incubated for 72 hrs measured after 4 hrs of MTT addition by MTT assay; type: functional, cell-based
HGC-27 [24] = assay: Induction of apoptosis in human HGC-27 cells assessed as late apoptotic cells at 500 nM incubated for 24 hrs by annexin V-FITC and propidium iodide based staining based flow cytometry analysis (reference value: 8.15 %); type: functional
SNU-16 = assay: Antiproliferative activity against human SNU-16 cells assessed as reduction in cell viability incubated for 72 hrs measured after 4 hrs of MTT addition by MTT assay; type: functional, cell-based
NCI-H292 = assay: Antiproliferative activity against human NCI-H292 cells assessed as reduction in cell viability incubated for 72 hrs measured after 4 hrs of MTT addition by MTT assay; type: functional, cell-based
[25] = AUC (0 to infinity) in ICR mouse at 40 mg/kg, po measured upto 24 hrs by LC-MS/MS analysis; type: ADME, organism-based; set-up: route oral, dose 40 mg/kg, time <=24; details: in vivo
[26] = target: Phosphatidylinositol 4,5-bisphosphate 3-kinase catalytic subunit delta isoform (Homo sapiens, UniProt O00329); assay: Inhibition of recombinant human full length His-tagged PI3Kdelta expressed in baculovirus expression system using PIP2 as substrate by ADP-Glo reagent based assay
Sequence of Phosphatidylinositol 4,5-bisphosphate 3-kinase catalytic subunit delta isoform (O00329 whole entry, canonical isoform): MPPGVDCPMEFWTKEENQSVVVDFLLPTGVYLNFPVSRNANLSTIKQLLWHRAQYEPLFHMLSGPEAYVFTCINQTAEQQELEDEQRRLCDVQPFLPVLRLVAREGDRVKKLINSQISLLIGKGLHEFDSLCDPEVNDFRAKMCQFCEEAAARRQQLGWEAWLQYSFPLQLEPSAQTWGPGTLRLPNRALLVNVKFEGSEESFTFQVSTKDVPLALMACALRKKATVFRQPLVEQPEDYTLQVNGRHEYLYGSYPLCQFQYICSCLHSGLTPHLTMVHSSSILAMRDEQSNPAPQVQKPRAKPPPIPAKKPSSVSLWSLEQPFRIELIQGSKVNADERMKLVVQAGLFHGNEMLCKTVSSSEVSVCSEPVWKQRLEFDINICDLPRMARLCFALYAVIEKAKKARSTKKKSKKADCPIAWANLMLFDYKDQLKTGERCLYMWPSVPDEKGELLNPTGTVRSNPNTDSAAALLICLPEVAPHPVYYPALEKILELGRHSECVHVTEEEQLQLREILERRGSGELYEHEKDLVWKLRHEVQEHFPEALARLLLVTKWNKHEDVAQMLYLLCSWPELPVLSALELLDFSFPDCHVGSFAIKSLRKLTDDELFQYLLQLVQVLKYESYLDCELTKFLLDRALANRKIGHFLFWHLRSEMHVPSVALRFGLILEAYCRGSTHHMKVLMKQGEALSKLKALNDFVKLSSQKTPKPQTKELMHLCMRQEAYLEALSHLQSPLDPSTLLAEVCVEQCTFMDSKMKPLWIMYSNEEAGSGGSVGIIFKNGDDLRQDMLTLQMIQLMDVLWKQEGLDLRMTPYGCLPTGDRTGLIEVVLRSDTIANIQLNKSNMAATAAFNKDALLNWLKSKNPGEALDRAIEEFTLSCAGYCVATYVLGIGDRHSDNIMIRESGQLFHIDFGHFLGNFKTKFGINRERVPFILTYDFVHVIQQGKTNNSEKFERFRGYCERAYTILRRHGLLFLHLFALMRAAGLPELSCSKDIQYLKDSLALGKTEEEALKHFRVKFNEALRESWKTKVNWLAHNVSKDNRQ

[27] = Oral bioavailability in ICR mouse at 40 mg/kg measured upto 24 hrs by LC-MS/MS analysis; type: ADME, organism-based; details: in vivo
[28] = Protein binding in plasma (unknown origin) assessed as unbound fraction; type: ADME, cell-free
SGC-7901 = assay: Antiproliferative activity against human SGC-7901 cells assessed as reduction in cell viability incubated for 72 hrs measured after 4 hrs of MTT addition by MTT assay; type: functional, cell-based

| SMILES | IC50 [1] | Vd [2] | AUC(0-t) at 24 h [3] | Papp B→A [4] | Cmax [5] | IC50 (NCI-H358) | Activity (HGC-27 [6]) | IC50 (HGC-27 [7]) | clearance [8] | half-life [9] | IC50 (A549) | Activity (HGC-27 [10]) | inhibition (HGC-27 [11]) | inhibition (Mus musculus [12]) | inhibition (HGC-27 [13]) | IC50 (SNU-638) | inhibition in vivo at 40 mg/kg (HGC-27 [14]) | AUC(0-t) at 24 h [15] | IC50 (MKN-45) | IC50 (NCI-H460) | other results |
| --- | --- | --- | --- | --- | --- | --- | --- | --- | --- | --- | --- | --- | --- | --- | --- | --- | --- | --- | --- | --- | --- |
| COc1ncc(-c2nc3c(N4CCOCC4)ncnc3s2)cc1NS(=O)(=O)c1ccc(F)cc1F | 930 nM | 0.513 L/kg | 23200 ng·h/mL | 43.4 ×10⁻⁶ cm/s | 9610 ng/mL | 1000 nM | 17.6% | 40 nM | 2.65 mL/min/kg | 2.25 h | 620 nM | Dose-dependent effect | Dose-dependent effect | Active | Dose-dependent effect | 690 nM | 88.7% | 126000 ng·h/mL | 1100 nM | 490 nM | AUC(0-inf) [16]: 25300 ng·h/mL; half-life [17]: 6.3 h; IC50 (NCI-H23): 580 nM; IC50 [18]: 5.3 nM; Papp A→B [19]: 21.4 ×10⁻⁶ cm/s; Activity (HGC-27 [20]): 0.23%; solubility kinetic [21]: 6.31 µM (≈ 3.28 µg/mL); viability at 0.5 µM (HGC-27 [22]): 77.7%; inhibition (Mus musculus [23]): inactive; IC50 (MGC-803): 670 nM; IC50 (MG-63): 360 nM; Activity (HGC-27 [24]): 4.53%; IC50 (SNU-16): 3100 nM; IC50 (NCI-H292): 320 nM; AUC(0-inf) [25]: 142000 ng·h/mL; IC50 [26]: 1 nM; bioavailability [27]: 54.5%; Fu [28]: 0.3%; IC50 (SGC-7901): 640 nM |
| COc1ncc(-c2cc3c(N4CCOCC4)ncnc3s2)cc1NS(=O)(=O)c1ccc(F)cc1F | 4700 nM | 0.537 L/kg | 14300 ng·h/mL | 37.6 ×10⁻⁶ cm/s | 22500 ng/mL | 5200 nM | 15.8% | 390 nM | 4.6 mL/min/kg | 1.36 h | 7800 nM | Dose-dependent effect | Dose-dependent effect | Active | Dose-dependent effect | 2400 nM | 58.2% | 143000 ng·h/mL | 2600 nM | 4000 nM | AUC(0-inf) [16]: 14600 ng·h/mL; half-life [17]: 13.7 h; IC50 (NCI-H23): 4400 nM; IC50 [18]: 50 nM; Papp A→B [19]: 21.1 ×10⁻⁶ cm/s; Activity (HGC-27 [20]): 0.26%; solubility kinetic [21]: 10.3 µM (≈ 5.35 µg/mL); viability at 0.5 µM (HGC-27 [22]): 75.1%; inhibition (Mus musculus [23]): inactive; IC50 (MGC-803): 6800 nM; IC50 (MG-63): 7000 nM; Activity (HGC-27 [24]): 8.87%; IC50 (SNU-16): 5800 nM; IC50 (NCI-H292): 2700 nM; AUC(0-inf) [25]: 187000 ng·h/mL; IC50 [26]: 3.9 nM; bioavailability [27]: 99.5%; Fu [28]: 0.3%; IC50 (SGC-7901): 5200 nM |

Source: ChEMBL document CHEMBL4673347, “Discovery of new thieno[2,3-d]pyrimidine and thiazolo[5,4-d]pyrimidine derivatives as orally active phosphoinositide 3-kinase inhibitors” (Bioorg Med Chem, 2021)
